A value given as a limit tells only on which side of the number the result lay.

In general, melting point refers to the temperature, or range, at which the solid turns liquid. `C=CCC1(C)OC(=S)Nc2ccc(-c3cccc(Cl)c3)cc21` (centres undefined) came in with a melting point of 150 to 151 °C.
With `Oc1cccc(F)c1OC(COCc1ccccc1)C(Cl)COCc1ccccc1` (centres undefined) the figure was 77 to 79 °C.
With `CC(C)(C)OC(=O)NC1CCN(c2c(F)cc3c(=O)c(C(=O)O)cn(C4CC4)c3c2F)C1` (centres undefined), the melting point lay within 239 to 240 °C.
With `O=C(O)c1cccc([N+](=O)[O-])c1Nc1ccc(Br)cc1` the figure was 194 to 196 °C; with `CCCc1c(O)ccc(C(=O)OCc2ccccc2)c1O`, 86 to 88 °C.
With `COCCOC(=O)COc1cc(F)ccc1C(=O)NCc1cccc([N+](=O)[O-])c1` the figure was 112 to 115 °C; with `c1ccc(CN2CCC(n3cnnc3-c3ccccc3)CC2)cc1`, 111 to 114 °C; with `COc1ccccc1OCC1SCCN1C(=O)CBr` (centres undefined), 82 to 84 °C.
The same measure for `O=C(Nc1cnccn1)Nc1cccc2c1C1C[C@@H](O)CCN1C2=O` (some centres undefined): 250 °C.
Take `OC(Cn1cncn1)c1ccc(Oc2ccc(Br)cc2)cc1Cl` (centres undefined): the melting point lay in the range of 115 to 118 °C.
With `CCCCCCCCCCCCCCCCCCOc1cc(C(=O)O)cc(C(=O)OC)c1` the figure was 81 to 83 °C; with `c1ccc(-n2nnnc2OCC2CO2)cc1` (centres undefined), 77 to 81 °C.
The same measure for `CCCCCCCCC(O)C(O)CCCCCCCCCCCC(N)=O` (centres undefined): 153 to 154 °C.
The same measure for `CCOc1ccc(C=CC(=O)c2c(OC)cc(OC)cc2OP(=O)(O)O)cc1`: 63 to 64 °C; for `Cc1cccc(-c2n[nH]cc2-c2ccnc(-c3ccc(-n4ccnc4C)cc3)c2)n1`: 128 °C; for `CCc1cnc2n1N=C(c1ccc(N)cc1)c1cc3c(cc1C2)OCO3`: 258 to 260 °C.
Compound `CC(=Cc1ccccc1)n1c(=O)n(CCCCCl)c2ccccc21` had a melting point of 90 °C.
With `O=C1C=CC2=C3OC=CC=C3C=CC2O1` (centres undefined) the figure was 96 to 98 °C; with `CCCCCCCCCCc1ccc2c(c1)C(=O)C(=COC(=O)c1ccccc1)CC2`, 64 to 66 °C; with `COCCNC(=O)c1ccc(SC)c([N+](=O)[O-])c1`, 117 to 118 °C.
Take `C=C(c1ccc(C(C)C)cc1)c1c(C)c(NC(=O)CC(C)(C)C)c(C)c2c1OCC2`: the melting point was 188 to 189 °C.
The same measure for `CCCOC1(C(F)(F)F)CN(C2CC2)C(=O)Nc2ccc(Cl)cc21` (centres undefined): 153 to 154 °C; for `COc1c(C=C[N+](=O)[O-])cc2c(c1OC)CCC2`: 104 °C; for `Cc1c2c(c(C(C)(O)c3ccc(C(C)C)cc3)c(C)c1NC(=O)OC(C)(C)C)OCC2` (centres undefined): 185 to 186 °C.
`COc1ccc(C(=O)CCC(=O)O)cc1OC1CCCC1` yielded a melting point of 111 to 113 °C.
With `CC(=O)Nc1ccc(OCC(=O)O)c(C(=O)NCc2ccc(Br)cc2F)c1` the figure was 235 °C; with `CCCOC(=O)c1cn(C2CC2)c2nc(N3CCC(N)C3)c(F)cc2c1=O` (centres undefined), 125 to 126 °C; with `CN(C)c1ncc2c(=O)n(Cc3ccccn3)sc2n1`, 145 to 146 °C.
The compound `Nc1cc(Br)cc2cccnc12` returned a melting point of 142 to 145 °C.
For `COC(=O)c1c(OC)ccc([N+](=O)[O-])c1OC`, the melting point was 77 to 78 °C.
With `CCc1nc(N)nc(N)c1-c1ccc(NCc2ccccc2)c([N+](=O)[O-])c1` the figure was 253 to 255 °C.
With `COc1ccccc1N1CCN(CC(O)COc2cc(C)c(OCc3ccccc3)c(C)c2)CC1` (centres undefined) the figure was 93 to 94 °C.
The same measure for `CSCC(=O)Nc1cc(-c2c(-c3ccc(F)c(C)c3)nc3cccnn23)ccn1`: 155 to 156 °C; for `Cc1cccc(CNc2c(NC(C)(C)C)c(=O)c2=O)c1C`: 237 to 239 °C; for `COC(=O)CC1=C(C)C(=Cc2ccc(S(N)(=O)=O)cc2)c2ccc(OC)cc21`: 170 to 171 °C.
In the case of `COc1ccc(-c2cc(=O)c3c(O)cc(OCC4=COC(C)(C)O4)cc3o2)cc1OC`, the melting point is 166 °C.
The same measure for `C=CCn1c(OC)n[nH]c1=O`: 111 °C; for `O=C(c1ccc2c(c1)OCC(CN1CCOCC1)N2)N1CCOCC1` (centres undefined): 125 to 126 °C; for `CC(C)(C)OC(=O)[C@H]1CCCN1S(=O)(=O)c1ccc2c(Br)cnc(Cl)c2c1`: 128 to 130 °C.
The same measure for `CCOC(=O)c1ccc(NC(=O)N(CCc2ccccc2)c2ccc3c(c2)C(C)(C)CCC3(C)C)cc1`: 223 to 225 °C.
The same measure for `CCOC(=O)/C(=C\Nc1ccc(OC)cc1)c1ccc(OC)cc1`: 90 to 91 °C; for `Nc1c(-c2ccc(Cl)cc2)nnn1-c1ccc(C(F)(F)F)cc1F`: 170 °C; for `CCN1C(=O)C(C)Oc2ccc(-n3c(=O)cc(C(F)(F)F)n(C)c3=O)cc21` (centres undefined): 221 to 222 °C.
Turning to `Cc1ccc(C)n1CCC1SCCC(=O)NC1C(N)=O` (centres undefined), the melting point lay within 181 to 183 °C.
The same measure for `CCC(=O)N1CCCSC1=C[N+](=O)[O-]`: 84 to 86 °C.
With `O=C1NCC2=C1CN=C(c1ccccc1Cl)c1cc(Cl)ccc12` the figure was 243 to 244 °C; with `Nc1ccc(Nc2cccc3c2C(=O)c2ccccc2C3=O)cc1`, 175 to 182 °C.
With `Nc1nc(Cl)nc2c1ncn2COCCO` the figure was 188 to 190 °C.
As to `Cc1cc(-c2ccc(C(F)(F)F)nc2)cc(-c2cccc(-c3cccc(S(N)(=O)=O)c3)c2)n1`, the melting point was in the range of 227 to 232 °C.
The same measure for `Nc1c([N+](=O)[O-])cc(C(F)(F)F)cc1[N+](=O)[O-]`: 142 to 144 °C; for `COc1ccc(N2C(=O)CC(Cl)C2=O)cc1` (centres undefined): 142 to 143 °C; for `COc1nccc2c1ccn2-c1ccc(C(F)(F)F)cc1Cl`: 112 to 115 °C.
With `O=C1c2ccccc2C(=O)N1CC(=O)N(CC(=O)N1CCc2ccccc21)c1ccccc1` the figure was 230 °C; with `Cc1ccccc1CC(=O)Nc1cc(C)c(S(=O)(=O)C[N+](=O)[O-])c(C)c1`, 188 to 190 °C.
The same measure for `O=C1c2cscc2Nc2ccccc2N1C1C=CCCC1` (centres undefined): 147 to 149 °C; for `COc1cc2c(=O)n(CCN3CCCC3)c3c4cc5c(cc4nnc3c2cc1OC)OCO5`: 229 °C.
The compound `CC(C)(C)OC(=O)N1[C@@H](c2ccccc2)[C@H](C(=O)OC(=O)[C@@H]2OC(C)(C)N(C(=O)OC(C)(C)C)[C@H]2c2ccccc2)OC1(C)C` returned a melting point of 46 °C.
With `N#CSCC(=O)c1ccc(Br)cc1` the figure was 148 to 149 °C; with `O=C(O)CCc1cn(Cc2cccc(C(=O)Nc3ccccn3)c2)nc1-c1ccccc1`, 187 to 188 °C.
For `CCOC(=O)N1c2ccccc2Sc2cc(O)c3ccccc3c21`, the melting point is 205 to 206 °C.
With `O=Cc1ccc(-c2cnco2)[nH]1` the figure was 152 to 153 °C; with `CC(C)(C(=O)Nc1ccc(Cl)cc1)/C(F)=C/Br`, 131 to 133 °C; with `CCN1CCc2c([nH]c3ccccc23)C1CNC(=O)OCc1ccccc1` (centres undefined), 92 to 94 °C.
`COCCCNS(=O)(=O)NC(=O)/C(C)=C/c1ccc(OCCOC)cc1Oc1ncc(C(F)(F)F)cc1Cl` gave a melting point of 121 to 122 °C.
The same measure for `CC(C)(CO)c1ccc(C(=O)Nc2cn3cc(-n4ccnc4)ccc3n2)cc1`: 278 to 280 °C; for `Cc1cc(C)nc(N(CCN(C(C)C)C(C)C)C(N)=O)n1`: 134 to 136 °C; for `Cc1cc(-n2cnnc2)ccc1N`: 152 to 154 °C.
With `COC(=O)c1ccc(OC(=O)c2ccc(OC)c(C34CC5CC(CC(C5)C3)C4)c2)cc1O` the figure was 125 to 127 °C; with `CCOC(=O)C(C)(C)Oc1ccc(-c2ccc(CC(=O)Nc3cc(Cl)ccc3OC)cc2)cc1`, less than 20 °C; with `O=C1COc2ccc(CCCCCc3ccc4c(c3)NC(=O)CO4)cc2N1`, 189 to 190 °C.
The same measure for `ClC1(Cl)OC(Cl)(Cl)c2ccccc21`: 85 to 86 °C; for `COC(=O)C1CCN2C(=O)C(=O)c3cc(Cl)cc1c32` (centres undefined): 132 to 133 °C; for `CCC(CC)(CC(=O)Nc1cccc(OCc2ccc3ccccc3n2)c1)C(=O)O`: 149 to 150 °C.
Turning to `CN1CNC(=N[N+](=O)[O-])N(Cc2ccc(Cl)nc2)C1`, the melting point was 150 to 154 °C.
With `C=CCN(CC=C)Cc1noc(-c2ncn3c2[C@@H]2CCN2C(=O)c2c(Cl)cccc2-3)n1` the figure was 190 to 192 °C; with `CCOC(=O)c1cnc2cc(I)ccc2n1`, 160 to 162 °C.
Compound `CCNC(=O)C1CC(=O)N(Cc2ccccc2)C1` (centres undefined) yielded a melting point of 97 to 99 °C.
In the case of `N#CC(C(=O)Cl)=C(c1ccccc1)c1ccccc1`, the melting point fell in the range of 157 to 158 °C.
With `CCOC(=O)n1c(=O)n(CCN2CCN(c3ccccc3OC)CC2)c(=O)c2sccc21` the figure was 121 to 122 °C.
With `c1ccc(Cn2ccc(CN3CCC(c4ccccc4)(c4ccccc4)CC3)n2)cc1` the figure was 167 to 168 °C; with `N#Cc1ccc(C2=Nc3ccccc3C(=O)C2=Cc2ccncc2)cc1`, 154 to 156 °C; with `CCOC(=O)c1cn(C(C)CSc2ccccc2)c2nc(F)c(Cl)cc2c1=O` (centres undefined), 70 °C.
The same measure for `CCn1nc2c(N)nc3ccccc3c2c1CCc1ccccc1`: 179 to 181 °C; for `COC(=O)Cc1ccc(OCCNC(=O)C2Cc3ccccc3N2S(=O)(=O)c2ccc(-c3ccc(F)cc3OC)cc2)cc1` (centres undefined): 70 to 75 °C.
As for `CNC(=C[N+](=O)[O-])NCCSCc1cc2ccc(CN(C)C)cc2o1`, the melting point fell in the range of 113 to 114 °C.
With `Cc1nc2ccc(Cl)nn2c1C(=O)c1ccc(Cl)cc1F` the figure was 160 °C; with `COC(=O)C1=C(C)NC(C)=C(C(=O)OC(C)C)C1c1ccccc1[N+](=O)[O-]` (centres undefined), 174 °C; with `CN(CC(CCOS(C)(=O)=O)c1ccc(Cl)c(Cl)c1)C(=O)c1ccccc1` (centres undefined), 100 to 102 °C.
In the case of `Cc1cc(C)c2c(c1O)C(=O)C(C)(C)C2`, the melting point lay within 28 to 30 °C.

For the origin of these results see a melting point compilation (Tetko et al.; mined from patent text by program, amines drawn as free bases though some values may be those of a salt).
